Data published in patent US20080057134A1, “Antifungal compositions and method” (AgION Technologies, Inc., priority 2006, published 2008).

Tested on: Aspergillus niger
Test: Direct inoculation fungal testing of coated filter paper (modified ASTM G21)
Format: cell-based
Settings: text summary of Tables 1 and 2, Aspergillus niger

SMILES: Cc1cc(CC(C)CC(C)(C)C)n(O)c(=O)c1.NCCO (stereo not shown) [picrotone olamine, monoethanolamine salt of hydroxymethyl trimethylpentyl pyridone]
- antifungal properties / bioefficacy in words: excellent to good antifungal properties
